From patent US20260130395A1, “Water Dispersible Botanical Compositions” (Aquila Black Limited, priority 2021, published 2026)

Columns and labels:
[1] = Stability of cannabinoid compounds and Vitamin E components in Beverage 1 (AB White) by LCMSMS; type: physicochemical; conditions: AB White stored at 21-25° C.
[2] = Stability of cannabinoid entourage and Vitamin E components of the powder concentrate by LCMSMS; type: physicochemical; conditions: powder stored at 21-25° C.
Method: At each time period, 0.05 g of powder was dissolved in 10 ml-15 of ethanol, diluted to fall within the analytical range, and injected into the LCMSMS for analysis.

## CCCc1cc(O)c2c(c1)OC(C)(C)[C@@H]1CCC(C)=C[C@@H]21 [THCV, delta-9-tetrahydrocannabivarin]
[1]; 29 days
  Stability of Plant-Derived Cannabinoid Compounds in AB White, 21-25° C.: 3.62 µg/mL
[1]; 30 days
  Stability of Plant-Derived Cannabinoid Compounds in AB White, 21-25° C.: 3.48 µg/mL
[1]; 60 days
  Stability of Plant-Derived Cannabinoid Compounds in AB White, 21-25° C.: 3.50 µg/mL
[1]; 90 days
  Stability of Plant-Derived Cannabinoid Compounds in AB White, 21-25° C.: 3.47 µg/mL
[1]; 120 days
  Stability of Plant-Derived Cannabinoid Compounds in AB White, 21-25° C.: 3.45 µg/mL
[1]; 150 days
  Stability of Plant-Derived Cannabinoid Compounds in AB White, 21-25° C.: 3.54 µg/mL
[1]; 180 days
  Stability of Plant-Derived Cannabinoid Compounds in AB White, 21-25° C.: 3.52 µg/mL
[1]; 210 days
  Stability of Plant-Derived Cannabinoid Compounds in AB White, 21-25° C.: 3.40 µg/mL
[1]; 240 days
  Stability of Plant-Derived Cannabinoid Compounds in AB White, 21-25° C.: 3.41 µg/mL
[1]; 270 days
  Stability of Plant-Derived Cannabinoid Compounds in AB White, 21-25° C.: 3.56 µg/mL
[1]; 300 days
  Stability of Plant-Derived Cannabinoid Compounds in AB White, 21-25° C.: 3.52 µg/mL
[1]; 330 days
  Stability of Plant-Derived Cannabinoid Compounds in AB White, 21-25° C.: 3.55 µg/mL
[1]; 360 days
  Stability of Plant-Derived Cannabinoid Compounds in AB White, 21-25° C.: 3.49 µg/mL
[1]; 390 days
  Stability of Plant-Derived Cannabinoid Compounds in AB White, 21-25° C.: 3.40 µg/mL
[1]; 420 days
  Stability of Plant-Derived Cannabinoid Compounds in AB White, 21-25° C.: 3.46 µg/mL
[1]; 450 days
  Stability of Plant-Derived Cannabinoid Compounds in AB White, 21-25° C.: 3.47 µg/mL
[1]; 480 days
  Stability of Plant-Derived Cannabinoid Compounds in AB White, 21-25° C.: 3.30 µg/mL
[1]; 510 days
  Stability of Plant-Derived Cannabinoid Compounds in AB White, 21-25° C.: 3.32 µg/mL
[1]; 540 days
  Stability of Plant-Derived Cannabinoid Compounds in AB White, 21-25° C.: 3.44 µg/mL
[1]; 570 days
  Stability of Plant-Derived Cannabinoid Compounds in AB White, 21-25° C.: 3.30 µg/mL
[2]; 0 days
  Stability of Plant-Derived Cannabinoid Compounds in Powder Concentrate: 0.680 mg/g powder
[2]; 1 days
  Stability of Plant-Derived Cannabinoid Compounds in Powder Concentrate: 0.685 mg/g powder
[2]; 2 days
  Stability of Plant-Derived Cannabinoid Compounds in Powder Concentrate: 0.699 mg/g powder
[2]; 3 days
  Stability of Plant-Derived Cannabinoid Compounds in Powder Concentrate: 0.698 mg/g powder
[2]; 5 days
  Stability of Plant-Derived Cannabinoid Compounds in Powder Concentrate: 0.676 mg/g powder
[2]; 8 days
  Stability of Plant-Derived Cannabinoid Compounds in Powder Concentrate: 0.685 mg/g powder
[2]; 9 days
  Stability of Plant-Derived Cannabinoid Compounds in Powder Concentrate: 0.693 mg/g powder
[2]; 10 days
  Stability of Plant-Derived Cannabinoid Compounds in Powder Concentrate: 0.706 mg/g powder
[2]; 11 days
  Stability of Plant-Derived Cannabinoid Compounds in Powder Concentrate: 0.708 mg/g powder
[2]; 12 days
  Stability of Plant-Derived Cannabinoid Compounds in Powder Concentrate: 0.698 mg/g powder
[2]; 15 days
  Stability of Plant-Derived Cannabinoid Compounds in Powder Concentrate: 0.684 mg/g powder
[2]; 16 days
  Stability of Plant-Derived Cannabinoid Compounds in Powder Concentrate: 0.658 mg/g powder
[2]; 17 days
  Stability of Plant-Derived Cannabinoid Compounds in Powder Concentrate: 0.681 mg/g powder
[2]; 18 days
  Stability of Plant-Derived Cannabinoid Compounds in Powder Concentrate: 0.690 mg/g powder
[2]; 19 days
  Stability of Plant-Derived Cannabinoid Compounds in Powder Concentrate: 0.705 mg/g powder
[2]; 22 days
  Stability of Plant-Derived Cannabinoid Compounds in Powder Concentrate: 0.703 mg/g powder
[2]; 23 days
  Stability of Plant-Derived Cannabinoid Compounds in Powder Concentrate: 0.687 mg/g powder
[2]; 24 days
  Stability of Plant-Derived Cannabinoid Compounds in Powder Concentrate: 0.668 mg/g powder
[2]; 25 days
  Stability of Plant-Derived Cannabinoid Compounds in Powder Concentrate: 0.689 mg/g powder
[2]; 26 days
  Stability of Plant-Derived Cannabinoid Compounds in Powder Concentrate: 0.686 mg/g powder
[2]; 29 days
  Stability of Plant-Derived Cannabinoid Compounds in Powder Concentrate: 0.706 mg/g powder
[2]; 30 days
  Stability of Plant-Derived Cannabinoid Compounds in Powder Concentrate: 0.659 mg/g powder
[2]; 60 days
  Stability of Plant-Derived Cannabinoid Compounds in Powder Concentrate: 0.702 mg/g powder
[2]; 90 days
  Stability of Plant-Derived Cannabinoid Compounds in Powder Concentrate: 0.707 mg/g powder
[2]; 120 days
  Stability of Plant-Derived Cannabinoid Compounds in Powder Concentrate: 0.658 mg/g powder
[2]; 150 days
  Stability of Plant-Derived Cannabinoid Compounds in Powder Concentrate: 0.695 mg/g powder
[2]; 180 days
  Stability of Plant-Derived Cannabinoid Compounds in Powder Concentrate: 0.685 mg/g powder
[2]; 210 days
  Stability of Plant-Derived Cannabinoid Compounds in Powder Concentrate: 0.662 mg/g powder
[2]; 240 days
  Stability of Plant-Derived Cannabinoid Compounds in Powder Concentrate: 0.700 mg/g powder
[2]; 270 days
  Stability of Plant-Derived Cannabinoid Compounds in Powder Concentrate: 0.670 mg/g powder
[2]; 300 days
  Stability of Plant-Derived Cannabinoid Compounds in Powder Concentrate: 0.685 mg/g powder
[2]; 330 days
  Stability of Plant-Derived Cannabinoid Compounds in Powder Concentrate: 0.691 mg/g powder
[2]; 360 days
  Stability of Plant-Derived Cannabinoid Compounds in Powder Concentrate: 0.668 mg/g powder
[2]; 390 days
  Stability of Plant-Derived Cannabinoid Compounds in Powder Concentrate: 0.680 mg/g powder
[2]; 420 days
  Stability of Plant-Derived Cannabinoid Compounds in Powder Concentrate: 0.671 mg/g powder
[2]; 450 days
  Stability of Plant-Derived Cannabinoid Compounds in Powder Concentrate: 0.680 mg/g powder
[2]; 480 days
  Stability of Plant-Derived Cannabinoid Compounds in Powder Concentrate: 0.695 mg/g powder
[2]; 510 days
  Stability of Plant-Derived Cannabinoid Compounds in Powder Concentrate: 0.696 mg/g powder
[2]; 540 days
  Stability of Plant-Derived Cannabinoid Compounds in Powder Concentrate: 0.664 mg/g powder
[2]; 570 days
  Stability of Plant-Derived Cannabinoid Compounds in Powder Concentrate: 0.686 mg/g powder
